pIC50: −log10 of the molar value.
Columns and labels:
HEK-293 cells = assay: HEK-293 cytotoxicity detection (CellTiter-Glo); format: cell-based; conditions: Homo sapiens, 72 h, 72 h incubation, CellTiter-Glo luminescence, read-out: HEK293
Experimental: HEK-293 cells were treated with compounds diluted in 0.2% DMSO, dilution was done according to the following protocol: (1) making 500× stock solution in DMSO from 5 mM by 4-fold dilution, total 8 doses were included; (2) making 2× solution in cell culture medium by transferring 0.5 ul 500× stock solution into 125 ul medium; (3) adding 50 ul of 2× solution to cells for incubation of 72 h.
25 μl of the CellTiter-Glo®Reagent [(Promega)—Cat No. G7572] was added to each well in the 96-well plate. The contents were mixed for 2 minutes on an orbital shaker to induce cell lysis. The plate was then allowed to incubate at room temperature for 10 minutes to stabilize luminescent signal. Luminescence was recorded on BMG PheraStar with luminescence protocol.
The inhibition percentage of the compound was calculated by the following equation: Inhibition percentage of Compound=100−100×(Signal-low control)/(High control-low control), wherein signal=each test compound group
High control=Cell group with added DMSO and without compound, indicating cells proliferation with no inhibition;
Imax is the maximum percentage of inhibition.
The IC50 value of a compound can be obtained by fitting the following equation
(§1) Wherein, X and Y are known values, and IC50, Hillslope, Top and Bottom are the parameters obtained by fitting with software. Y is the inhibition percentage (calculated from the equation), X is the concentration of the compound; IC50 is the concentration of the compound when the 50% inhibition is reached. The smaller the IC50 value is, the stronger the inhibitory ability of the compound is. Vice versa, the higher the IC50 value is, the weaker the ability the inhibitory ability of the compound is; Hillslope represents the slope of the fitted curve, generally around 1*; Bottom represents the minimum value of the curve obtained by data fitting, which is generally 0%±20%; Top represents the maximum value of the curve obtained by data fitting, which is generally 100%±20%. The experimental data were fitted by calculating and analyzing with Dotmatics data analysis software.

BTK = BTK (Homo sapiens, UniProt Q06187); assay: BTK cell degradation in TMD-8 cells, HTRF assay; format: cell-based; set-up: endogenous in cells; host or cells: TMD-8 cells; conditions: 6 h treatment, IC50 (DC50) of BTK degradation
BTK, sequence (Q06187 whole entry): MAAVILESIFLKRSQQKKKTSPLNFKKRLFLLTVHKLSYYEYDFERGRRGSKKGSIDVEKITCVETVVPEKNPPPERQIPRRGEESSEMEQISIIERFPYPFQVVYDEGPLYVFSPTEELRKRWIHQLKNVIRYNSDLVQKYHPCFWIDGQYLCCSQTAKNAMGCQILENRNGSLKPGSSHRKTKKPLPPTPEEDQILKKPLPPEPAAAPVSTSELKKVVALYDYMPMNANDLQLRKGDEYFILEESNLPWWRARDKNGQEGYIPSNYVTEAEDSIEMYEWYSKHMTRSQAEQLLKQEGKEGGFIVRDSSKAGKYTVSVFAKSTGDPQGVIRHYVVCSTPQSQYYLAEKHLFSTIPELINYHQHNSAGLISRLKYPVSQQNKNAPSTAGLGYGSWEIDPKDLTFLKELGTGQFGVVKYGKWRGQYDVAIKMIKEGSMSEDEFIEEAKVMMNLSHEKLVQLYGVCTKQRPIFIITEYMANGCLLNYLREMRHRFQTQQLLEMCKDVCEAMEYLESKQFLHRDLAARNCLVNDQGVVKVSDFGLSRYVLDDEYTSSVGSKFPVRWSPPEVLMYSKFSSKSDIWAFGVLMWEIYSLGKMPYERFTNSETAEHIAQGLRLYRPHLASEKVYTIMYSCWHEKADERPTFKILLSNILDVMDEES
Experimental: TMD-8 cells were treated with compounds diluted in 0.2% DMSO, dilution was done according to the following protocol: (1) making 500× stock solution in DMSO from 1 mM by 6-fold dilution, total 8 doses were included; (2) making 2× solution in cell culture medium by transferring 0.5 μl 500× stock solution into 125 μl medium; (3) adding 15 μl of 2× solution to cells for incubation of 6 h.
After 6 h treatment, 10 μl 14×lysis buffer was added to each well; the plate was sealed and incubated for 30 min at room temperature on a plate shaker; Once the cells was lysed, 16 μL of cell lysate were transferred to a PE 384-well HTRF detection plate; 4 μL of pre-mixed HTRF antibodies were added to each well; the plate was covered with a plate sealer, and then spinned at 1000 rpm for 1 min, then incubated overnight at room temperature; the results were read on BMG PheraStar with HTRF protocol (337 nm-665 nm-620 nm).
The inhibition (degradation) percentage of the compound was calculated by the following equation: Inhibition percentage of Compound=100−100×(Signal-low control)/(High control-low control), wherein signal=each test compound group
High control=Cell group with added DMSO and without compound, indicating microplate readings without BTK degradation;
Dmax is the maximum percentage of inhibition (degradation).
The IC50 (DC50) value of a compound can be obtained by fitting the following equation
Y=Bottom+(TOP−Bottom)/(1+((IC50/X)^hillslope))
as §1, with “wherein,” for “Wherein,”

## NC(=O)c1c(-c2ccc(Oc3ccccc3)cc2)nn2c1Nc1cc(C3CCN(CCC4CCN(c5ccc(N6CCC(=O)NC6=O)cc5)CC4)CC3)ccc1CC2 [Example A23, 6-(1-(2-(1-(4-(2,4-dioxotetrahydropyrimidin-1(2H)-yl)phenyl)piperidin-4-yl)ethyl)piperidin-4-yl)-2-(4-phenoxyphenyl)-9,10-dihydro-4H-benzo[d]pyrazolo[1,5-a] [1,3]diazepine-3-carboxamide]
HEK-293 cells
  pIC50: 6.35
BTK
  DC50: 9.23 nM

## NC(=O)c1c(-c2ccc(Oc3ccccc3)cc2)nn2c1Nc1ccc(OCCC3CCN(c4ccc(N5CCC(=O)NC5=O)cc4)CC3)cc1CC2 [Example A24, 7-(2-(1-(4-(2,4-dioxotetrahydropyrimidin-1(2H)-yl)phenyl)piperidin-4-yl)ethoxy)-2-(4-phenoxyphenyl)-9,10-dihydro-4H-benzo[d]pyrazolo[1,5-a][1,3]diazepine-3-carboxamide]
HEK-293 cells
  pIC50: 6.63
BTK
  DC50: 9.26 nM

## NC(=O)c1c(-c2ccc(Oc3ccccc3)cc2)nn2c1Nc1cc(OCCC3CCN(c4ccc(N5CCC(=O)NC5=O)cc4)CC3)ccc1CC2 [Example A25, 6-(2-(1-(4-(2,4-dioxotetrahydropyrimidin-1(2H)-yl)phenyl)piperidin-4-yl)ethoxy)-2-(4-phenoxyphenyl)-9,10-dihydro-4H-benzo[d]pyrazolo[1,5-a][1,3]diazepine-3-carboxamide]
HEK-293 cells
  pIC50: < 5.00
BTK
  DC50: 24.9 nM

## NC(=O)c1c(-c2ccc(Oc3ccccc3)cc2)nn2c1Nc1ccc(CCC3CCN(c4ccc(NC5CCC(=O)NC5=O)cc4)CC3)cc1CC2 (stereo not drawn) [Example A26, 7-(2-(1-(4-((2,6-dioxopiperidin-3-yl)amino)phenyl)piperidin-4-yl)ethyl)-2-(4-phenoxyphenyl)-9,10-dihydro-4H-benzo[d]pyrazolo[1,5-a][1,3] diazepine-3-carboxamide]
HEK-293 cells
  pIC50: 6.55
BTK
  DC50: 16 nM

## NC(=O)c1c(-c2ccc(Oc3ccccc3)cc2)nn2c1Nc1cc(C3CCN(CC4CCN(c5ccc(N6CCC(=O)NC6=O)cc5)CC4)CC3)ccc1CC2 [Example A27, 6-(1-((1-(4-(2,4-dioxotetrahydropyrimidin-1(2H)-yl)phenyl)piperidin-4-yl)methyl)piperidin-4-yl)-2-(4-phenoxyphenyl)-9,10-dihydro-4H-benzo[d]pyrazolo[1,5-a][1,3]diazepine-3-carboxamide]
HEK-293 cells
  pIC50: 6.50
BTK
  DC50: 6.73 nM

## NC(=O)c1c(-c2ccc(Oc3ccccc3)cc2)nn2c1Nc1ccc(C3CCN(CCC4CCN(c5ccc(N6CCC(=O)NC6=O)cc5)CC4)CC3)cc1CC2 [Example A28, 7-(1-(2-(1-(4-(2,4-dioxotetrahydropyrimidin-1(2H)-yl)phenyl)piperidin-4-yl)ethyl)piperidin-4-yl)-2-(4-phenoxyphenyl)-9,10-dihydro-4H-benzo[d]pyrazolo[1,5-a][1,3]diazepine-3-carboxamide]
HEK-293 cells
  pIC50: 7.09
BTK
  DC50: 2.01 nM

## NC(=O)c1c(-c2ccc(Oc3ccccc3)cc2)nn2c1Nc1ccc(C3CCN(CC4CCN(c5ccc(N6CCC(=O)NC6=O)cc5)CC4)CC3)cc1CC2 [Example A30, 7-(1-((1-(4-(2,4-dioxotetrahydropyrimidin-1(2H)-yl)phenyl)piperidin-4-yl)methyl)piperidin-4-yl)-2-(4-phenoxyphenyl)-9,10-dihydro-4H-benzo[d]pyrazolo[1,5-a][1,3]diazepine-3-carboxamide]
HEK-293 cells
  pIC50: 7.54
BTK
  DC50: 1.58 nM

## CC(C)(C)c1ccc(Oc2ccc(-c3nn4c(c3C(N)=O)Nc3ccc(C5CCN(CC6CCN(c7ccc(N8CCC(=O)NC8=O)cc7)CC6)CC5)cc3CC4)cc2)cc1 [Example A31, 2-(4-(4-(tert-butyl)phenoxy)phenyl)-7-(1-((1-(4-(2,4-dioxotetrahydropyrimidin-1(2H)-yl)phenyl)piperidin-4-yl)methyl)piperidin-4-yl)-9,10-dihydro-4H-benzo[d]pyrazolo[1,5-a][1,3]diazepine-3-carboxamide]
HEK-293 cells
  pIC50: 6.26
BTK
  DC50: 11.9 nM

## NC(=O)c1c(-c2ccc(Oc3ccccc3)cc2)nn2c1Nc1cc(C3CCN(CCCOc4ccc(NC5CCC(=O)NC5=O)cc4)CC3)ccc1CC2 (stereo not drawn) [Example A32, 6-(1-(3-(4-((2,6-dioxopiperidin-3-yl)amino)phenoxy)propyl)piperidin-4-yl)-2-(4-phenoxyphenyl)-9,10-dihydro-4H-benzo[d]pyrazolo[1,5-a] [1,3]diazepine-3-carboxamide]
HEK-293 cells
  pIC50: 6.38
BTK
  DC50: 6.03 nM

## NC(=O)c1c(-c2ccc(Oc3ccccc3)cc2)nn2c1Nc1cc(C3CCN(CCc4ccc(N5CCC(=O)NC5=O)cc4)CC3)ccc1CC2 [Example A33, 6-(1-(4-(2,4-dioxotetrahydropyrimidin-1(2H)-yl)phenethyl)piperidin-4-yl)-2-(4-phenoxyphenyl)-9,10-dihydro-4H-benzo[d]pyrazolo[1,5-a][1,3]diazepine-3-carboxamide]
HEK-293 cells
  pIC50: 6.50
BTK
  DC50: > 2000 nM

## NC(=O)c1c(-c2ccc(Oc3ccccc3)cc2)nn2c1Nc1cc(C3CCN(CCc4ccc(C5CCC(=O)NC5=O)cc4)CC3)ccc1CC2 (stereo not drawn) [Example A34, 6-(1-(4-(2,6-dioxopiperidin-3-yl)phenethyl)piperidin-4-yl)-2-(4-phenoxyphenyl)-9,10-dihydro-4H-benzo[d]pyrazolo[1,5-a][1,3]diazepine-3-carboxamide]
HEK-293 cells
  pIC50: 6.47
BTK
  DC50: 11.9 nM

## NC(=O)c1c(-c2ccc(Oc3ccccc3)cc2)nn2c1Nc1cc(C3CCN(CC4CCN(c5ccc(NC6CCC(=O)NC6=O)cc5)CC4)CC3)ccc1CC2 (stereo not drawn) [Example A35, 6-(1-((1-(4-((2,6-dioxopiperidin-3-yl)amino)phenyl)piperidin-4-yl)methyl)piperidin-4-yl)-2-(4-phenoxyphenyl)-9,10-dihydro-4H-benzo[d]pyrazolo[1,5-a][1,3]diazepine-3-carboxamide]
HEK-293 cells
  pIC50: 6.62
BTK
  DC50: 69.1 nM

## COc1cc(Oc2ccccc2)ccc1-c1nn2c(c1C(N)=O)Nc1ccc(N3CCN(CC4CCN(c5ccc(N6CCC(=O)NC6=O)cc5)CC4)CC3)cc1CC2 [Example A36, 7-(4-((1-(4-(2,4-dioxotetrahydropyrimidin-1(2H)-yl)phenyl)piperidin-4-yl)methyl)piperazin-1-yl)-2-(2-methoxy-4-phenoxyphenyl)-9,10-dihydro-4H-benzo[d]pyrazolo[1,5-a][1,3]diazepine-3-carboxamide]
HEK-293 cells
  pIC50: 6.83
BTK
  DC50: 3.6 nM

## NC(=O)c1c(-c2ccc(Oc3ccccc3)cc2F)nn2c1Nc1ccc(N3CCN(CC4CCN(c5ccc(N6CCC(=O)NC6=O)cc5)CC4)CC3)cc1CC2 [Example A37, 7-(4-((1-(4-(2,4-dioxotetrahydropyrimidin-1(2H)-yl)phenyl)piperidin-4-yl)methyl)piperazin-1-yl)-2-(2-fluoro-4-phenoxyphenyl)-9,10-dihydro-4H-benzo[d]pyrazolo[1,5-a][1,3]diazepine-3-carboxamide]
HEK-293 cells
  pIC50: 7.16
BTK
  DC50: 4.71 nM

## NC(=O)c1c(-c2ccc(OCc3ccccc3)cc2)nn2c1Nc1ccc(N3CCN(CC4CCN(c5ccc(N6CCC(=O)NC6=O)cc5)CC4)CC3)cc1CC2 [Example A38, 2-(4-(benzyloxy)phenyl)-7-(4-((1-(4-(2,4-dioxotetrahydropyrimidin-1(2H)-yl)phenyl)piperidin-4-yl)methyl)piperazin-1-yl)-9,10-dihydro-4H-benzo[d]pyrazolo[1,5-a][1,3]diazepine-3-carboxamide]
HEK-293 cells
  pIC50: 6.73
BTK
  DC50: 1.12 nM
